According to ChEMBL document CHEMBL4840351 (J Med Chem, 2021):
Each block holds one molecule with its values, some of them ahead of it.

Key:
[1] = target: Tyrosine-protein kinase BTK (Homo sapiens, UniProt Q06187); assay: Inhibition of full-length N-terminal GST tagged BTK (2 to 659 residues) (unknown origin) expressed in Sf21 insect cells using NH2-ETVYSEVRK-biotin as substrate preincubated for 1 hr followed by ATP addition and measured after 2 hrs by ELISA
[2] = target: T1, Tyrosine-protein kinase ITK/TSK (Homo sapiens, UniProt Q08881); assay: Inhibition of full-length N-terminal GST-tagged ITK (2 to 620 residues) (unknown origin) expressed in Sf21 insect cells using NH2-ETVYSEVRK-biotin as substrate preincubated for 1 hr followed by ATP addition and measured after 2 hrs by ELISA
T1 sequence (Q08881 whole entry): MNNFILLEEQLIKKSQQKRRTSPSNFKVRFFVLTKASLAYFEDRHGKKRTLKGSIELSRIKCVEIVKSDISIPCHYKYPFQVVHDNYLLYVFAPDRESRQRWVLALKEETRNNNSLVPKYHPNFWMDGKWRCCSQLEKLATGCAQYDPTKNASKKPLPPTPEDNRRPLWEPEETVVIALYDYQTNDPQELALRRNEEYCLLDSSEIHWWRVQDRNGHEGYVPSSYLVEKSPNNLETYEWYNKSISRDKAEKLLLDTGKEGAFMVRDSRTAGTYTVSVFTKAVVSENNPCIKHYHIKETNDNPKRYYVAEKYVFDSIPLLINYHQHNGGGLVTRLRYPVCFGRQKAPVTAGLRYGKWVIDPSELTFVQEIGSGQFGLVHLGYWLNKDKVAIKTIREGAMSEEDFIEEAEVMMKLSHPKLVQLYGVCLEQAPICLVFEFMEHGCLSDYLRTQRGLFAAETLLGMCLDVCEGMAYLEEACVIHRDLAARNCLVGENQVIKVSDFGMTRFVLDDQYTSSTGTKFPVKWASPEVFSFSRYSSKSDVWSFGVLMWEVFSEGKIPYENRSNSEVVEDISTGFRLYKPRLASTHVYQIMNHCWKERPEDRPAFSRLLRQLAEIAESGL

[3] = target: Epidermal growth factor receptor (Homo sapiens, UniProt P00533); assay: Inhibition of N-terminal DYKDDDD-tagged EGFR (669 to 1210 residues) (unknown origin) expressed in Sf21 insect cells using NH2-ETVYSEVRK-biotin as substrate preincubated for 1 hr followed by ATP addition and measured after 2 hrs by ELISA
Chain of Epidermal growth factor receptor (P00533 whole entry, the tested form may be a part): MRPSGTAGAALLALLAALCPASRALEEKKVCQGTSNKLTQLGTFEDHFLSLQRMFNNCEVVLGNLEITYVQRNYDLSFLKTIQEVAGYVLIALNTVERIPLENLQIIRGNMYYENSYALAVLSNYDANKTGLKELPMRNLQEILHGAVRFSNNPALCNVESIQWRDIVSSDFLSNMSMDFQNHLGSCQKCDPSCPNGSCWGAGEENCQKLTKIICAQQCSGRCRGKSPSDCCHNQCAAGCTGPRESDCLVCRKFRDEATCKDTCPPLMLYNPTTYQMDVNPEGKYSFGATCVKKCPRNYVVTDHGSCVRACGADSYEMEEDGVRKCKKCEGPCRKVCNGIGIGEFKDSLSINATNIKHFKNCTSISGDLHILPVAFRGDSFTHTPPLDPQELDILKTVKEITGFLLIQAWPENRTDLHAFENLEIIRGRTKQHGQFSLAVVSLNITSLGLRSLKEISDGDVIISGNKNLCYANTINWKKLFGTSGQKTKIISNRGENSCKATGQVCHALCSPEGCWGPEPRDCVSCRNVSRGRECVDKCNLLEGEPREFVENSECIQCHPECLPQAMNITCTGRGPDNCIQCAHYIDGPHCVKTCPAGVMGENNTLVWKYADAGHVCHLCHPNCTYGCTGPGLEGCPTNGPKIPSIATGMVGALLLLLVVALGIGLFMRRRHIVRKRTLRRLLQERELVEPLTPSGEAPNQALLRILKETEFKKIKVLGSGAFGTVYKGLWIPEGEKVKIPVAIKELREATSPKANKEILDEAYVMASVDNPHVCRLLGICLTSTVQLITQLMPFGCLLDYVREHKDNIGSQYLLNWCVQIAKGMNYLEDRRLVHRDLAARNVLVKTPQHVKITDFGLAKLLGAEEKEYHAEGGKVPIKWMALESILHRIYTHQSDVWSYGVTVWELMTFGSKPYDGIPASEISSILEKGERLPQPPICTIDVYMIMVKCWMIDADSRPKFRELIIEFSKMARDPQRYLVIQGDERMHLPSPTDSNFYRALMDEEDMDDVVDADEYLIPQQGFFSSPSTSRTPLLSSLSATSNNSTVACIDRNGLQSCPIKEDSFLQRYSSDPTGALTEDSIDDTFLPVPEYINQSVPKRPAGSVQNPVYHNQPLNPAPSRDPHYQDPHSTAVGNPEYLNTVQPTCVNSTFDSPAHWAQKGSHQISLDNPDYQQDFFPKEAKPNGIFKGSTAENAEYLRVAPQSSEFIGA

Pfeiffer = assay: Antiproliferative activity against human Pfeiffer cells assessed as reduction in cell viability incubated for 72 hrs by celltiter-glo assay
SU-DHL-2 = assay: Antiproliferative activity against human SUDHL2 cells assessed as reduction in cell viability incubated for 72 hrs by celltiter-glo assay; settings: SU-DHL-2, 72 h
NAMALVA = assay: Antiproliferative activity against human NAMALWA cells assessed as reduction in cell viability incubated for 72 hrs by celltiter-glo assay
Ramos = assay: Antiproliferative activity against human Ramos cells assessed as reduction in cell viability incubated for 72 hrs by celltiter-glo assay
TMD8 [4] = assay: Antitumor activity against human TMD8 cells xenografted in CB-17 SCID nude mouse assessed as tumor growth inhibition at 7.5 mg/kg, po bid administered for 21 days; format: functional; settings: 504 h, time 21 day, read-out: TGI
MOLM-13 = assay: Antiproliferative activity against human MOLM-13 cells assessed as reduction in cell viability incubated for 72 hrs by celltiter-glo assay; settings: MOLM-13, 72 h
TMD8 [5] = assay: Antiproliferative activity against human TMD8 cells assessed as reduction in cell viability incubated for 72 hrs by celltiter-glo assay; settings: TMD8, 72 h
[6] = Receptor occupancy at BTK in spleen of ICR mouse at 15 mg/kg, po after 24 hrs by ELISA; format: functional
Raji = assay: Antiproliferative activity against human Raji cells assessed as reduction in cell viability incubated for 72 hrs by celltiter-glo assay
Rec1 = assay: Antiproliferative activity against human REC-1 cells assessed as reduction in cell viability incubated for 72 hrs by celltiter-glo assay; settings: Rec1, 72 h
[7] = Cmax in ICR mouse at 15 mg/kg, po after 24 hrs; format: ADME, organism-based; design: route oral, time 24 hrs, dose 15 mg/kg; settings: in vivo
TMD8 [8] = assay: Induction of apoptosis in human TMD8 cells at 30 nM incubated for 72 hrs by Annexin V-FITC/PI staining based flow cytometric analysis (reference value: 13.4 %); format: functional
TMD8 [9] = assay: Induction of cell cycle arrest in human TMD8 cells assessed as accumulation of cells at S phase at 3 nM incubated for 48 hrs by PI staining based flow cytometric analysis (reference value: 37.42 %); format: functional
TMD8 [10] = assay: Induction of cell cycle arrest in human TMD8 cells assessed as accumulation of cells at G1 phase at 3 nM incubated for 48 hrs by PI staining based flow cytometric analysis (reference value: 57.66 %); format: functional
TMD8 [11] = assay: Induction of cell cycle arrest in human TMD8 cells assessed as accumulation of cells at G1 phase at 300 nM incubated for 48 hrs by PI staining based flow cytometric analysis (reference value: 57.66 %); format: functional
TMD8 [12] = assay: Induction of apoptosis in human TMD8 cells at 300 nM incubated for 72 hrs by Annexin V-FITC/PI staining based flow cytometric analysis (reference value: 13.4 %); format: functional
TMD8 [13] = assay: Induction of cell cycle arrest in human TMD8 cells assessed as accumulation of cells at S phase at 300 nM incubated for 48 hrs by PI staining based flow cytometric analysis (reference value: 37.42 %); format: functional
TMD8 [14] = assay: Induction of cell cycle arrest in human TMD8 cells assessed as accumulation of cells at G2 phase at 300 nM incubated for 48 hrs by PI staining based flow cytometric analysis (reference value: 4.92 %); format: functional
TMD8 [15] = assay: Induction of cell cycle arrest in human TMD8 cells assessed as accumulation of cells at G1 phase at 30 nM incubated for 48 hrs by PI staining based flow cytometric analysis (reference value: 57.66 %); format: functional
TMD8 [16] = assay: Induction of apoptosis in human TMD8 cells at 3000 nM incubated for 72 hrs by Annexin V-FITC/PI staining based flow cytometric analysis (reference value: 13.4 %); format: functional
TMD8 [17] = assay: Induction of cell cycle arrest in human TMD8 cells assessed as accumulation of cells at S phase at 30 nM incubated for 48 hrs by PI staining based flow cytometric analysis (reference value: 37.42 %); format: functional
TMD8 [18] = assay: Induction of cell cycle arrest in human TMD8 cells assessed as accumulation of cells at G2 phase at 30 nM incubated for 48 hrs by PI staining based flow cytometric analysis (reference value: 4.92 %); format: functional
TMD8 [19] = assay: Induction of cell cycle arrest in human TMD8 cells assessed as accumulation of cells at G2 phase at 3 nM incubated for 48 hrs by PI staining based flow cytometric analysis (reference value: 4.92 %); format: functional

Chain of Tyrosine-protein kinase BTK (Q06187 whole entry, the tested form may be a part): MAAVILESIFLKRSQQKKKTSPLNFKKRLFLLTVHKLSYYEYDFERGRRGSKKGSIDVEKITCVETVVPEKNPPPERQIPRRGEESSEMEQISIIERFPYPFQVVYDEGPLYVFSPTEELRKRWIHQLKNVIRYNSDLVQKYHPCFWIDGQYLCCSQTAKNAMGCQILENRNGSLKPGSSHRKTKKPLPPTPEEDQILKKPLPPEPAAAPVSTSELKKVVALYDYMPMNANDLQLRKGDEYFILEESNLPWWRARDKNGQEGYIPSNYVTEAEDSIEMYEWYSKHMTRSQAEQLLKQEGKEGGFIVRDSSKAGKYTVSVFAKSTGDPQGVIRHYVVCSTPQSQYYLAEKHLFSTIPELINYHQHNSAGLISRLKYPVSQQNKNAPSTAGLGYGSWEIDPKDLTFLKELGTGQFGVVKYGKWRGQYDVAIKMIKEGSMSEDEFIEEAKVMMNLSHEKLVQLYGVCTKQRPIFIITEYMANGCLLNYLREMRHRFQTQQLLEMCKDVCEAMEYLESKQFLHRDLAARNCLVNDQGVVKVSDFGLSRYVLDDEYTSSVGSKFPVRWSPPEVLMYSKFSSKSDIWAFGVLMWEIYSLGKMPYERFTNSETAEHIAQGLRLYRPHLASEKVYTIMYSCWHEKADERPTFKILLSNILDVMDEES

Compound: C=CC(=O)N1CCCC[C@H]1c1nc(-c2ccc(C(=O)Nc3cc(-c4ccc(Cl)cc4)ccn3)cc2)c(C(N)=O)n1N
IC50 [2]: 1.92 µM
IC50 [3]: 0.0126 µM

Compound: C=CC(=O)N1CCCC[C@H]1c1nc(-c2ccc(C(=O)Nc3ccccc3)cc2)c(C(N)=O)n1N
IC50 [1]: 0.571 µM

Compound: CC#CC(=O)N1CCCC[C@H]1c1nc(-c2ccc(C(=O)Nc3cc(-c4ccccc4)ccn3)cc2)c(C(N)=O)n1N
IC50 [2]: > 30 µM
IC50 [3]: 16.8 µM

Compound: CC#CC(=O)N1CCC[C@H]1c1nc(-c2ccc(C(=O)Nc3ccccn3)cc2)c2c(N)nccn12 [ACALABRUTINIB]
IC50 (Pfeiffer): > 10 µM
IC50 (SU-DHL-2): > 10 µM
IC50 (NAMALVA): > 10 µM
IC50 (Ramos): 31.3 µM
inhibition in vivo at 7.5 mg/kg (TMD8 [4]): 91%
IC50 (MOLM-13): 358 µM
IC50 (TMD8 [5]): 0.024 µM
Occ [6]: 44%
IC50 (Raji): > 10 µM
IC50 (Rec1): 0.013 µM
Cmax [7]: 780 nM

Compound: CCC(=O)N1CCCC[C@H]1c1nc(-c2ccc(C(=O)Nc3cc(C(F)(F)F)ccn3)cc2)c(C(N)=O)n1N
IC50 [1]: 4.75 µM

Compound: C=CC(=O)N1CCCC[C@H]1c1nc(-c2ccc(C(=O)Nc3cc(C(F)(F)F)ccn3)cc2)c(C(=O)OCC)n1N
IC50 [1]: 5.16 µM

Compound: C=CC(=O)N1CCCC[C@H]1c1nc(-c2ccc(C(=O)Nc3cccnc3)cc2)c(C(N)=O)n1N
IC50 [1]: > 10 µM

Compound: C=CC(=O)N1CCCC[C@H]1c1nc(-c2ccc(C(=O)Nc3cc(-c4ccc(F)cc4)ccn3)cc2)c(C(N)=O)n1N
IC50 [2]: 6.06 µM
IC50 [3]: 0.113 µM

Compound: CC#CC(=O)N1CCCC[C@H]1c1nc(-c2ccc(C(=O)Nc3cc(Cl)ccn3)cc2)c(C(N)=O)n1N
IC50 [2]: > 30 µM
IC50 [3]: > 30 µM

Compound: C=CC(=O)N1CCCC[C@H]1c1nc(-c2ccc(C(=O)Nc3cc(-c4ccccc4)ccn3)cc2)c(C(N)=O)n1N
IC50 [2]: 2.21 µM
IC50 [3]: 0.0794 µM

Compound: CC#CC(=O)N1CCCC[C@H]1c1nc(-c2ccc(C(=O)Nc3cc(C(F)(F)F)ccn3)cc2)c(C(N)=O)n1N
Activity (TMD8 [8]): 14.1%
Activity (TMD8 [9]): 41.28%
Activity (TMD8 [10]): 54.63%
IC50 [2]: > 30 µM
Activity (TMD8 [11]): 94.86%
Activity (TMD8 [12]): 36.8%
Activity (TMD8 [13]): 1.96%
IC50 (Ramos): 0.77 µM
Activity (TMD8 [14]): 3.18%
Activity (TMD8 [15]): 67.44%
Activity (TMD8 [16]): 81.3%
IC50 (MOLM-13): 0.73 µM
IC50 (TMD8 [5]): 0.054 µM
Activity (TMD8 [17]): 27.8%
Activity (TMD8 [18]): 4.76%
Activity (TMD8 [19]): 4.09%

Compound: C=CC(=O)N1CCC[C@@H](n2nc(-c3ccc(Oc4ccccc4)cc3)c3c(N)ncnc32)C1 [IBRUTINIB]
inhibition in vivo at 7.5 mg/kg (TMD8 [4]): 99%

Second part, the molecule after the results:

IC50 [1]: > 10 µM
Compound: CCc1ccnc(NC(=O)c2ccc(-c3nc([C@@H]4CCCCN4C(=O)C=C(C)C)n(N)c3C(N)=O)cc2)c1

IC50 [1]: > 10 µM
Compound: C/C=C/C(=O)N1CCCC[C@H]1c1nc(-c2ccc(C(=O)Nc3cc(CC)ccn3)cc2)c(C(N)=O)n1N

IC50 [1]: 0.0171 µM
Compound: C=CC(=O)N1CCCC[C@H]1c1nc(-c2ccc(C(=O)Nc3cc(C#N)ccn3)cc2)c(C(N)=O)n1N

IC50 [1]: 0.0393 µM
Compound: C=CC(=O)N1CCC[C@H]1c1nc(-c2ccc(C(=O)Nc3cc(CC)ccn3)cc2)c(C(N)=O)n1N

IC50 [1]: > 10 µM
Compound: CCc1ccnc(NC(=O)c2ccc(-c3nc([C@@H]4CCCCN4C(=O)/C(C#N)=C/C(C)C)n(N)c3C(N)=O)cc2)c1

IC50 [1]: 0.0189 µM
Compound: C=CC(=O)N1CCC[C@@H](c2nc(-c3ccc(C(=O)Nc4cc(CC)ccn4)cc3)c(C(N)=O)n2N)C1

IC50 [1]: 0.01 µM
Compound: C#CC(=O)N1CCCC[C@H]1c1nc(-c2ccc(C(=O)Nc3cc(CC)ccn3)cc2)c(C(N)=O)n1N

IC50 [2]: 29.5 µM
IC50 [3]: 0.176 µM
Compound: C=CC(=O)N1CCCC[C@H]1c1nc(-c2ccc(C(=O)Nc3cc(Cl)ccn3)cc2)c(C(N)=O)n1N

IC50 [1]: > 10 µM
Compound: CC/C=C/C(=O)N1CCCC[C@H]1c1nc(-c2ccc(C(=O)Nc3cc(CC)ccn3)cc2)c(C(N)=O)n1N

IC50 [1]: 0.226 µM
Compound: C=CC(=O)N1CCCCC[C@H]1c1nc(-c2ccc(C(=O)Nc3cc(CC)ccn3)cc2)c(C(N)=O)n1N

IC50 [1]: > 10 µM
Compound: CCc1ccnc(NC(=O)c2ccc(-c3nc([C@@H]4CCCCN4C(=O)/C(C#N)=C/C4CC4)n(N)c3C(N)=O)cc2)c1

IC50 [2]: > 30 µM
IC50 [3]: 0.45 µM
Compound: C=CC(=O)N1CCCC[C@H]1c1nc(-c2ccc(C(=O)Nc3cc(OC)ccn3)cc2)c(C(N)=O)n1N

IC50 [1]: > 10 µM
Compound: C=C(C)C(=O)N1CCCC[C@H]1c1nc(-c2ccc(C(=O)Nc3cc(CC)ccn3)cc2)c(C(N)=O)n1N

IC50 [1]: 0.0113 µM
Compound: C=CC(=O)N1CCCC[C@H]1c1nc(-c2ccc(C(=O)Nc3cc(CC)ccn3)cc2)c(C(N)=O)n1N

IC50 [2]: 15.3 µM
IC50 [3]: 0.578 µM
Compound: C=CC(=O)N1CCCC[C@H]1c1nc(-c2ccc(C(=O)Nc3cc(Br)ccn3)cc2)c(C(N)=O)n1N
